The subject of series [1] is SARS-CoV-2 B.1.351 variant. As to the kind of experiment: microbe, parasite or virus in culture. The settings on record: Severe acute respiratory syndrome coronavirus 2, A549-ACE2, 48 h, read-out: IC50, SARS-CoV-2 B.1.351.
In series [2] the test system is SARS-CoV-2 B.1.351 variant.
In series [3] the test system is SARS-CoV-2 B.1.351 variant. Description: microbe, parasite or virus in culture. The format is cell-based. The settings on record: Severe acute respiratory syndrome coronavirus 2, Huh-7.5.1, 48 h, read-out: IC50, SARS-CoV-2 B.1.351 in Huh7.5.1 cells.

Where two headings read alike, the source gives them in different places.

Regarding `CNC(=O)c1cc(Oc2ccc(NC(=O)Nc3ccc(Cl)c(C(F)(F)F)c3)cc2)ccn1` [Sorafenib], the IC50 in series [1] was 1700 nM. Also, in series [2], the “Inhibitory effect in B.1.351-infected cells (in words)” value (shortened to “Inhibitory effect”) is listed as “exerted inhibitory effects” and the “SI (CC50/IC50), SARS-CoV-2 B.1.351” value is on record as 7.6.
Take `CN1CCN(CCCN2c3ccccc3Sc3ccc(C(F)(F)F)cc32)CC1` [Trifluoperazine]: in series [1], the IC50 is 2790 nM. In addition, in series [2], the “Inhibitory effect” value was “exerted inhibitory effects” and the “SI (CC50/IC50), SARS-CoV-2 B.1.351” value came out at 13.25.
Regarding `COc1cc2c(cc1OC)[C@@H]1C(=O)c3ccc4c(c3O[C@@H]1CO2)C=CC(C)(C)O4` [Deguelin], the IC50 in series [1] worked out at 4670 nM. Also, in series [2], the “Inhibitory effect” value was “exerted inhibitory effects” and the “SI (CC50/IC50), SARS-CoV-2 B.1.351” value is 7.44.
In the case of `COc1ccc2cc1Oc1ccc(cc1)C[C@H]1c3c(cc4c(c3Oc3cc5c(cc3OC)CCN(C)[C@@H]5C2)OCO4)CCN1C` [Cepharanthine], the values for the IC50 in series [1] and in series [3] were 240 nM and 60 nM, respectively. Also, the “Inhibitory effect” value in series [2] was “exerted inhibitory effects”. Besides, in series [2], the “SI (CC50/IC50), SARS-CoV-2 B.1.351” value amounted to 128.83.

Usually IC50 stands for the concentration that inhibits the measured activity by half.

Source of the values: article PMC8566969, “Comparison of viral RNA–host protein interactomes across pathogenic RNA viruses informs rapid antiviral drug discovery for SARS-CoV-2” (Cell Research, 2021).
